By Ki is commonly meant a dissociation constant, usually derived from enzyme kinetics or from competition with a known ligand. A word on the IC50: it is the concentration needed to halve the response being measured. High values mean a need for much substance, low ones inhibition by little substance.

The target in experiment [1] is T1, DDR1 (Homo sapiens, UniProt Q08345). Briefly: DDR1 binding assay (LanthaScreen Europium Kinase Binding assay). On the set-up: purchased Carna Biosciences. To be noted: binding assay, 5 nM DDR1, 20 nM Kinase Tracer 178; Ki from IC50 by Cheng-Prusoff; read-out: Ki DDR1. The method, boiled down:
(§1)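 TR-FRET tracer-displacement format: 665/615 nm emission ratio (340 nm excitation) gave IC50 by 4-parameter fit, then Ki via Cheng-Prusoff. Each kinase at 5 nM with 2 nM Eu-anti-GST antibody and Tracer 178 (DDR1 20 nM, DDR2 10 nM), 1 h, room temperature, HEPES pH 7.5 buffer.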
A general note: In TR-FRET formats the signal depends on donor and acceptor labels being close together.

For experiment [2], the target named is T2, DDR2 (Homo sapiens, UniProt Q16832).
T2 sequence (Q16832 22-855): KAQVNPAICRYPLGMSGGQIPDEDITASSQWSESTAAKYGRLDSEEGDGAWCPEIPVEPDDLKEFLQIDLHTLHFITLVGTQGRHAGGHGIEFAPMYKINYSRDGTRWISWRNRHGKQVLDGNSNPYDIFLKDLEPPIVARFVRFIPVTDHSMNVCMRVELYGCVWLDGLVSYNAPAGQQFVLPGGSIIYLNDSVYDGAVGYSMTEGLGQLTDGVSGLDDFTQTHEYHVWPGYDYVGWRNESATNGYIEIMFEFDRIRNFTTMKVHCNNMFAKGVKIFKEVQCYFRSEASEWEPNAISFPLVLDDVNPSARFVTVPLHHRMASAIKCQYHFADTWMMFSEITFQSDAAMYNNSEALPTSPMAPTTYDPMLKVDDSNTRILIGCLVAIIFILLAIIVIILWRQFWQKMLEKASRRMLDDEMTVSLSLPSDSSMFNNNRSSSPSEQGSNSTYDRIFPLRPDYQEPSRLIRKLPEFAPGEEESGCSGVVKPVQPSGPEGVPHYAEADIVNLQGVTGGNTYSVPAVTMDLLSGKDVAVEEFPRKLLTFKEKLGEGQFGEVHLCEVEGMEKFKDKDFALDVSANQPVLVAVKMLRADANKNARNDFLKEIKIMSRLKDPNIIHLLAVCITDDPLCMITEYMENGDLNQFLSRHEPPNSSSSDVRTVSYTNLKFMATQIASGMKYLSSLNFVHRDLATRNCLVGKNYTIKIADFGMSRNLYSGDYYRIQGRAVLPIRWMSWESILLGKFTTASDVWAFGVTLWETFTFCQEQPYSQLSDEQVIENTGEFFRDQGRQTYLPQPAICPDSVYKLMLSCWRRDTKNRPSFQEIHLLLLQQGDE
Briefly: DDR2 binding assay (LanthaScreen Europium Kinase Binding assay). On the set-up: purchased Life Technologies. To be noted: binding assay, 5 nM DDR2, 10 nM Kinase Tracer 178; Ki from IC50 by Cheng-Prusoff; read-out: Ki DDR2. The method, boiled down:
as §1

The target in experiment [3] is T1, DDR1. Briefly: DDR1 cell based assay (PathHunter U2OS DDR1 assay). On the set-up: host or cells: U2OS-DDR1 (PathHunter). To be noted: U2OS-DDR1 cells, bovine Type II Collagen 20 μg/ml. The essentials: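 Receptor activation measured by enzyme-fragment complementation luminescence in engineered U2OS cells. Compound added 30 min before overnight challenge with 20 μg/ml bovine collagen II; data scaled between vehicle and collagen-stimulated controls, IC50 derived by four-parameter variable-slope fitting.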

A value given as a limit tells only on which side of the number the result lay.

T1 sequence (Q08345 19-913): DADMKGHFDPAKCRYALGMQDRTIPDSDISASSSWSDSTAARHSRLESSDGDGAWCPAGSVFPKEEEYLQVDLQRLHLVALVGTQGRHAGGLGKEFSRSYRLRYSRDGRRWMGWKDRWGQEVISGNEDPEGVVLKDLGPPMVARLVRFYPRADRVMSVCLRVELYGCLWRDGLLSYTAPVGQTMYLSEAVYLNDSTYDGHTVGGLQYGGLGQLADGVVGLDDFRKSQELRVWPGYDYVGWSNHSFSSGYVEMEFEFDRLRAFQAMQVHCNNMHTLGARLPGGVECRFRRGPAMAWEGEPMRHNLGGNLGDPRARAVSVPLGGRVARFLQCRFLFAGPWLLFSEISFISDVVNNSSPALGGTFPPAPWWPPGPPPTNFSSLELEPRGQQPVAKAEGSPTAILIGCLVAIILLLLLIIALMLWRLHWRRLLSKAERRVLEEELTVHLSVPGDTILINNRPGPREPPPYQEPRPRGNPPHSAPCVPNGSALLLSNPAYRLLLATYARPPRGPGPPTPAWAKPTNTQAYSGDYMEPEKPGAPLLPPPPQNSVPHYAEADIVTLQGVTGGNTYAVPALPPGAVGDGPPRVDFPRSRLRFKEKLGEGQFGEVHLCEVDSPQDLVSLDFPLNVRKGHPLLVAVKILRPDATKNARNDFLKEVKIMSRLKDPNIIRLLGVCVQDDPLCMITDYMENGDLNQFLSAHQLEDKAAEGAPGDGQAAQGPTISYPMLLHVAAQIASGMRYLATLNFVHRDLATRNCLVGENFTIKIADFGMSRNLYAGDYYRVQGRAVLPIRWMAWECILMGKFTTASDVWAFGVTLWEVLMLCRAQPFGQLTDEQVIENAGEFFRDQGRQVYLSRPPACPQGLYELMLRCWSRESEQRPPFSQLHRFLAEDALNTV

With `Cn1nc(C(C)(C)C)cc1NC(=O)c1csc2c1CCN(C(=O)c1cnc3ccc(C(F)(F)F)cn13)C2` [Example 82, N-(3-(tert-butyl)-1-methyl-1H-pyrazol-5-yl)-6-(6-(trifluoromethyl)imidazo[1,2-a]pyridine-3-carbonyl)-4,5,6,7-tetrahydrothieno[2,3-c]pyridine-3-carboxamide], the inhibition constant (Ki) in experiment [1] and in experiment [2] was below 0.025 µM each time. Moreover, in experiment [3], the half-inhibitory concentration (IC50) lay in the range of 0.025 to 0.05 µM.

Consider `CN(C)Cc1cc(NC(=O)c2csc3c2CCN(C(=O)c2cnc4ccccn24)C3)cc(C(F)(F)F)n1` [Example 129, N-(2-((dimethylamino)methyl)-6-(trifluoromethyl)pyridin-4-yl)-6-(imidazo[1,2-a]pyridine-3-carbonyl)-4,5,6,7-tetrahydrothieno[2,3-c]pyridine-3-carboxamide], for which the Ki in experiment [1] is below 0.025 µM; in experiment [2] it was 0.025 to 0.05 µM. This molecule gave an IC50 in experiment [3] of 0.025 to 0.05 µM.

`O=C(Nc1cc(CN2CCCCC2)cc(C(F)(F)F)c1)c1csc2c1CCN(C(=O)c1cnc3ccccn13)C2` [Example 60, 6-(imidazo[1,2-a]pyridine-3-carbonyl)-N-(3-(piperidin-1-ylmethyl)-5-(trifluoromethyl)phenyl)-4,5,6,7-tetrahydrothieno[2,3-c]pyridine-3-carboxamide]: the Ki in experiment [1] and in experiment [2] was below 0.025 µM throughout. Further, the half-maximal inhibitory concentration (IC50) in experiment [3] is 0.05 to 0.08 µM.

Consider `Cn1nc(NC(=O)c2csc3c2CCN(C(=O)c2cnn4ccncc24)C3)cc1C(C)(C)C` [Example 116, N-(5-(tert-butyl)-1-methyl-1H-pyrazol-3-yl)-6-(pyrazolo[1,5-a]pyrazine-3-carbonyl)-4,5,6,7-tetrahydrothieno[2,3-c]pyridine-3-carboxamide], for which the inhibition constant Ki in experiment [1] and in experiment [2] was below 0.025 µM in each case. The molecule further yielded an IC50 in experiment [3] of 0.025 to 0.05 µM.

As for `O=C(Nc1cncc(C(F)(F)F)c1)c1csc2c1CCN(Cc1cnn3ccncc13)C2` [Example 154, 6-(pyrazolo[1,5-a]pyrazin-3-ylmethyl)-N-(5-(trifluoromethyl)pyridin-3-yl)-4,5,6,7-tetrahydrothieno[2,3-c]pyridine-3-carboxamide], the Ki in experiment [1] and in experiment [2] was below 0.025 µM each time. In experiment [3], the IC50 lay in the range of 0.05 to 0.08 µM.

As to `O=C(Nc1cncc(C(F)(F)F)c1)c1csc2c1CCN(C(=O)c1cnc3n1CCOC3)C2` [Example 110, 6-(5,6-dihydro-8H-imidazo[2,1-c][1,4]oxazine-3-carbonyl)-N-(5-(trifluoromethyl)pyridin-3-yl)-4,5,6,7-tetrahydrothieno[2,3-c]pyridine-3-carboxamide], the inhibitory constant (Ki) in experiment [1] and in experiment [2] was below 0.025 µM throughout. The IC50 in experiment [3] fell in the range of 0.025 to 0.05 µM.

As for `CN1CCC(Oc2ccc(NC(=O)c3csc4c3CCN(C(=O)c3cnc5ccccn35)C4)cc2C(F)(F)F)CC1` [Example 32, 6-(imidazo[1,2-a]pyridine-3-carbonyl)-N-(4-((1-methylpiperidin-4-yl)oxy)-3-(trifluoromethyl)phenyl)-4,5,6,7-tetrahydrothieno[2,3-c]pyridine-3-carboxamide], the inhibition constant (Ki) in experiment [1] and in experiment [2] was below 0.025 µM throughout. Besides, the half-maximal inhibitory concentration (IC50) in experiment [3] is 0.025 to 0.05 µM.

For `Cc1ccc(-n2nc(C(C)(C)C)cc2NC(=O)c2csc3c2CCN(Cc2ccnc4[nH]ccc24)C3)cc1` [Example 76, 6-((1H-pyrrolo[2,3-b]pyridin-4-yl)methyl)-N-(3-(tert-butyl)-1-(p-tolyl)-1H-pyrazol-5-yl)-4,5,6,7-tetrahydrothieno[2,3-c]pyridine-3-carboxamide], the Ki was below 0.025 µM in experiment [1] and 0.025 to 0.05 µM in experiment [2]. The same molecule displayed an IC50 in experiment [3] of 0.05 to 0.08 µM.

Regarding `CN(C)Cc1ccc(NC(=O)c2csc3c2CCN(C(=O)c2cnc4ccccn24)C3)cc1C(F)(F)F` [Example 27], the Ki in experiment [1] and in experiment [2] was below 0.025 µM in each case. The molecule further showed an IC50 in experiment [3] of 0.025 to 0.05 µM.

Take `O=C(Nc1ccnc(C(F)(F)F)c1)c1csc2c1CCN(C(=O)c1cnc3ccccn13)C2` [Example 17, 6-(imidazo[1,2-a]pyridine-3-carbonyl)-N-(2-(trifluoromethyl)pyridin-4-yl)-4,5,6,7-tetrahydrothieno[2,3-c]pyridine-3-carboxamide]: the inhibitory constant (Ki) in experiment [1] and in experiment [2] was below 0.025 µM each time. Further, the concentration for half-maximal inhibition (IC50) in experiment [3] is 0.025 to 0.05 µM.

Regarding `CC(C)(C)c1cc(NC(=O)c2csc3c2CCN(C(=O)c2cnc4ccccn24)C3)n(CC(F)(F)F)n1` [Example 40, N-(3-(tert-butyl)-1-(2,2,2-trifluoroethyl)-1H-pyrazol-5-yl)-6-(imidazo[1,2-a]pyridine-3-carbonyl)-4,5,6,7-tetrahydrothieno[2,3-c]pyridine-3-carboxamide], the Ki in experiment [1] and in experiment [2] was below 0.025 µM each time. In addition, the IC50 in experiment [3] is 0.025 to 0.05 µM.

As for `Cc1n[nH]c2ncc(CN3CCc4c(C(=O)Nc5cc(C6CC6)on5)csc4C3)cc12` [Example 148, N-(5-cyclopropylisoxazol-3-yl)-6-((3-methyl-1H-pyrazolo[3,4-b]pyridin-5-yl)methyl)-4,5,6,7-tetrahydrothieno[2,3-c]pyridine-3-carboxamide], the inhibition constant (Ki) in experiment [1] and in experiment [2] was below 0.025 µM each time. The same molecule gave an IC50 in experiment [3] below 0.025 µM.

For `O=C(Nc1cc(OCCN2CCCC2)cc(C(F)(F)F)c1)c1csc2c1CCN(Cc1cnc3[nH]ncc3c1)C2` [Example 164, 6-((1H-pyrazolo[3,4-b]pyridin-5-yl)methyl)-N-(3-(2-(pyrrolidin-1-yl)ethoxy)-5-(trifluoromethyl)phenyl)-4,5,6,7-tetrahydrothieno[2,3-c]pyridine-3-carboxamide], the Ki in experiment [1] and in experiment [2] was below 0.025 µM in each case. In addition, in experiment [3], the IC50 was below 0.025 µM.

`Cc1cccc2ncc(C(=O)N3CCc4c(C(=O)Nc5cc(CN6CC[C@@H](N(C)C)C6)cc(C(F)(F)F)c5)csc4C3)n12` [Example 162, (R)—N-(3-((3-(dimethylamino)pyrrolidin-1-yl)methyl)-5-(trifluoromethyl)phenyl)-6-(5-methylimidazo[1,2-a]pyridine-3-carbonyl)-4,5,6,7-tetrahydrothieno[2,3-c]pyridine-3-carboxamide]: the Ki was below 0.025 µM in experiment [1] and 0.025 to 0.05 µM in experiment [2]. The molecule also had a concentration for half-maximal inhibition (IC50) in experiment [3] of 0.025 to 0.05 µM.

On to `CC1CN(C(=O)c2cnc3ccccn23)Cc2scc(C(=O)Nc3cccc(C(F)(F)F)c3)c21` (stereo not drawn) [Example 185, 6-(imidazo[1,2-a]pyridine-3-carbonyl)-4-methyl-N-(3-(trifluoromethyl)phenyl)-4,5,6,7-tetrahydrothieno[2,3-c]pyridine-3-carboxamide], for which the Ki in experiment [1] and in experiment [2] was below 0.025 µM throughout. The molecule also returned an IC50 in experiment [3] below 0.025 µM.

With `O=C(Nc1cccc(C(F)(F)F)c1)c1csc2c1CCN(C(=O)c1cnc3[nH]ccc3c1)C2` [Example 68, 6-(1H-pyrrolo[2,3-b]pyridine-5-carbonyl)-N-(3-(trifluoromethyl)phenyl)-4,5,6,7-tetrahydrothieno[2,3-c]pyridine-3-carboxamide], the Ki in experiment [1] and in experiment [2] was below 0.025 µM throughout. For the same molecule, in experiment [3], the IC50 was 0.025 to 0.05 µM.

Take `O=C(Nc1cncc(C(F)(F)F)c1)c1csc2c1CCN(C(=O)c1cnc3n1CCCN3)C2` [Example 120, 6-(5,6,7,8-tetrahydroimidazo[1,2-a]pyrimidine-3-carbonyl)-N-(5-(trifluoromethyl)pyridin-3-yl)-4,5,6,7-tetrahydrothieno[2,3-c]pyridine-3-carboxamide]: the Ki in experiment [1] and in experiment [2] was below 0.025 µM throughout. Also, the IC50 in experiment [3] lay within 0.05 to 0.08 µM.

Regarding `CN1CCN(c2cc(NC(=O)c3csc4c3CCN(C(=O)c3cnn5ccncc35)C4)cc(C(F)(F)F)c2)CC1` [Example 178, N-(3-(4-methylpiperazin-1-yl)-5-(trifluoromethyl)phenyl)-6-(pyrazolo[1,5-a]pyrazine-3-carbonyl)-4,5,6,7-tetrahydrothieno[2,3-c]pyridine-3-carboxamide], the Ki in experiment [1] and in experiment [2] was below 0.025 µM in each case. Moreover, the IC50 in experiment [3] was in the range of 0.05 to 0.08 µM.

For the origin of these results see US20240391936A1, “TETRAHYDROTHIENO PYRIDINE DERIVATIVES AS DDRS INHIBITORS” (CHIESI FARMACEUTICI S.P.A., priority 2021, published 2024).
